{"source": "patent US20040235761A1", "about": "“Novel virus proliferaton inhibition/virucidal method and novel pyradine nucleotide/pyradine nucleoside analogue” (priority 2001, published 2004)", "key": {"[1]": {"target": "T1, Influenza virus polymerase (crude enzyme from virus particles) (Influenza A virus, UniProt P03431)", "T1 construct": "these particles were used as polymerase crude enzymes; from tissue; host or cells: influenza virus particles lysed with Triton N101/LPC (crude enzyme)", "T1 sequence (P03431 whole entry, looked up)": "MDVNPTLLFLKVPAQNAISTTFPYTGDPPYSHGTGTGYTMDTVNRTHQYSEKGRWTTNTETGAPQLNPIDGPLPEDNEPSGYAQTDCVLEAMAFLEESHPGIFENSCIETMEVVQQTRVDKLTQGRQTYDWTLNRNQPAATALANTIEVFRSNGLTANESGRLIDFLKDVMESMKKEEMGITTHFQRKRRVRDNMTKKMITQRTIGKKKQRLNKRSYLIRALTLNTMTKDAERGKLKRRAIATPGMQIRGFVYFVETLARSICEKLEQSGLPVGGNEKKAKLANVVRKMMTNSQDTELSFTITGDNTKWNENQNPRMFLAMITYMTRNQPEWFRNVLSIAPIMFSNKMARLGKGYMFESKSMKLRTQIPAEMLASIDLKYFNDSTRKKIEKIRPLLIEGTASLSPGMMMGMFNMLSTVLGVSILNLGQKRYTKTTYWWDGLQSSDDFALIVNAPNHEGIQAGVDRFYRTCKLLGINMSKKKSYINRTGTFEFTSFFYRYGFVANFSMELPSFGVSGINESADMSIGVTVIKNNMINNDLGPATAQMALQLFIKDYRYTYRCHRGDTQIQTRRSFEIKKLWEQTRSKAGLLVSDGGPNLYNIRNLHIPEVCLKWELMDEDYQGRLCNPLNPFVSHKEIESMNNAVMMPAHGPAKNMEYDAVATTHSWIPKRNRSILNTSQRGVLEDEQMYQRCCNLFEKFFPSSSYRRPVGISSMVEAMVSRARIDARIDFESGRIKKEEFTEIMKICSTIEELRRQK", "assay": "Polymerase inhibition test (influenza virus)", "type": "biochemical", "conditions": "30° C., 60 minutes, 32P-GTP incorporation, read-out: 50% inhibition concentration", "method": "Influenza virus particles were treated with a dissolving solution (100 mM Tris-HCl (pH 8), 100 mM KCl, 5 mM MgCl2, 1.5 mM DTT, 5% glycerol, 1.5% Triton N101, 1% LPC), and these particles were used as polymerase crude enzymes. Each of the test compounds with different concentrations was added to a reaction buffer (100 mM Tris-HCl (pH 8.0), 100 mM KCl, 5 mM MgCl2, 1 mM DTT, 0.25% Triton N101, 0.25 mM ApG, 0.1 mM ATP, 0.05 mM CTP, 0.05 mM UTP, 0.0005 mM GTP, ^32P-GTP, crude enzyme), followed by incubation at 30° C. for 60 minutes. Thereafter, 10% trichloroacetic acid (TCA) was added thereto, and the mixture was retained on ice for 60 minutes. Thereafter, it was dropped on a GF/C filter, and the filter was then washed with 5% TCA. The filter was dried, and scintillation cocktail was added thereto. The radioactivity was determined using a liquid scintillation counter. The measurement value was given as a 50% inhibition concentration, providing that a group in which no test compounds were added was defined as 100%."}, "[2]": {"target": "T2, HCV polymerase (NS5B region of hepatitis C virus) (Hepatitis C virus genotype 1a, UniProt P27958)", "T2 construct": "The NS5B region of hepatitis C virus was produced in Escherichia coli; made in house; host or cells: Escherichia coli", "T2 sequence (P27958 2421-3011)": "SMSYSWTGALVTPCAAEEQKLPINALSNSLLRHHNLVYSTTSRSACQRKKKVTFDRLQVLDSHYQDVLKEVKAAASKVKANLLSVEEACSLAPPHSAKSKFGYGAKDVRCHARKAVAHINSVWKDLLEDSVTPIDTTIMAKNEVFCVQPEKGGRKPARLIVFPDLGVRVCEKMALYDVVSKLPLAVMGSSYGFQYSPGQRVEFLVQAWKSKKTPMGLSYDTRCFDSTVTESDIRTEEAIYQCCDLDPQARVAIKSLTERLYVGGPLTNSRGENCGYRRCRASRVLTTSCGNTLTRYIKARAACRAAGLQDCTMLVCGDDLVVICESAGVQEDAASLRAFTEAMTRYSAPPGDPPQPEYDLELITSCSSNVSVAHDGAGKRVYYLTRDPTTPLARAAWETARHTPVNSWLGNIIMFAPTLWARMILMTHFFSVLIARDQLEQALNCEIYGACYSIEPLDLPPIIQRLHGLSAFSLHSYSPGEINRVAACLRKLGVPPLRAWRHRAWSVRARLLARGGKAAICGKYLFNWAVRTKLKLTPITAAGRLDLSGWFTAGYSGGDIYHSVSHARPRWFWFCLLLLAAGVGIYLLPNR", "assay": "Polymerase inhibition test (hepatitis C virus)", "type": "biochemical", "method": "The NS5B region of hepatitis C virus was produced in Escherichia coli, and it was used as HCV polymerase for the test. The sequence of the 3′-region of HCV was prepared by the in vitro transcription method, and it was used as an RNA template for the test.\nEach of the test compounds with different concentrations was added to a reaction buffer (20 mM Tris-HCl (pH 8.0), 0.05 mM MnCl2, 1 mM DTT, 20 units RNase inhibitor, [α-^32P]GTP, 0.05 mM each of ATP, CTP and UTP, and 2 μg/mL RNA template), followed by incubation at 30° C. for 2 hours. Thereafter, 10% TCA was added to terminate the reaction. Thereafter, the reaction solution was dropped on a DE81 filter, and the filter was then washed with 5% TCA. The filter was dried, and scintillation cocktail was added thereto. The radioactivity was determined using a liquid scintillation counter. The measurement value was given as a 50% inhibition concentration, providing that a group in which no test compounds were added was defined as 100%."}, "[3]": {"target": "Inosine monophosphate dehydrogenase (IMPDH)", "assay": "Inosine monophosphate dehydrogenase (IMPDH) inhibition test", "type": "biochemical", "conditions": "IMPDH enzyme solution from MDCK cell homogenate, 37° C., 1 hour; read-out: 50% inhibition concentration", "method": "MDCK cells monolayer-cultured on a culture plate were suspended in 0.05 M Tris-HCl (pH 8.0), and the suspension was homogenated with a Downs homogenizer to obtain a cell homogenate. The cell homogenate was centrifuged at 16000×g, and the thus obtained supernatant was used as an IMPDH enzyme solution.\nAs reaction compositions, 0.1 M Tris-HCl (pH 8.0), 0.1 M KCl, 30 mM EDTA, 5 mM NAD, 5 mg/mL bovine serum albumin, and 0.04 mM [8-^14C]-inosine 5′-monophosphate were used. After completion of reaction at 37° C. for 1 hour, 2 volumes of acetonitrile were added to terminate the reaction, and the reaction product was concentrated. The obtained concentrate was analyzed under the HPLC conditions indicated below. The ratio between the reaction substrate ([^14C]-inosine 5′-monophosphate) and the reaction product ([^14C]-xanthosine 5′-monophosphate) was obtained, and the reaction rate was calculated. Ribavirin monophosphate was used as a control compound."}, "[4]": {"tested_on": "influenza virus A/PR/8/34", "assay": "Anti-influenza effect (plaque inhibition in MDCK cells)", "type": "cell-based", "conditions": "PR/8, MDCK, 72 h, read-out: Inhibition rate (plaque inhibition rate)"}, "[5]": {"tested_on": "bovine diarrhea virus (BVDV) NADL", "assay": "Anti-BVDV effect (plaque inhibition in MDBK cells)", "type": "cell-based", "conditions": "Bovine viral diarrhea virus isolates and strains, 72 h, 100 μg/mL test compound, 70 PFU/well, 3 days, read-out: Inhibition rate (plaque inhibition rate)", "method": "MDBK cells that had fully grown in a 6-well culture plate were infected with bovine diarrhea virus (BVDV) NADL at 70 PFU/well. After 60 minutes, the infection solution was removed, and a test culture solution (E′-MEM) containing 5% horse serum and 1% agar (SeaPlaque Agar) that contained a 100 μg/mL test compound was added thereto. The mixture was fully solidified and then cultured for 3 days under conditions of 37° C., a humidity of 100% and 5% CO2. After completion of the culture, the test plate was fixed with a 3% formaldehyde solution, and the agar medium was removed with running water, followed by staining with a 1% crystal violet solution, so as to count the number of plaques. The plaque inhibition rate was expressed by the percentage obtained by comparing with a control to which no test compounds were added."}, "[6]": {"target": "human RNA polymerase (Hela cell nucleus extract) (Homo sapiens, UniProt P24928+P30876)", "assay": "Human RNA polymerase inhibition test", "type": "biochemical", "conditions": "30° C., 1 hour, read-out: 50% inhibition concentration", "method": "A Hela cell nucleus extract (Promega) was used as human RNA polymerase for the test. The pCMP script was cleaved with restriction enzymes and then purified, and it was used as a DNA template for the test.\nEach of the test compounds with different concentrations was added to a reaction buffer (Hela cell nucleus extract, 3 mM MgCl2, 0.4 mM each of ATP, UTP and CTP, 0.016 mM GTP, 16 μg/mL DNA template, 0.4 mCi/mL [α-^32P]GTP), followed by incubation at 30° C. for 1 hour. After completion of the reaction, the reaction solution was dropped on a DE81 filter, and the filter was then washed with 5% Na2HPO4 solution 3 times for 30 minutes, and then with distilled water once for 1 minute. The filter was dried, and scintillation cocktail was added thereto. The radioactivity was determined using a liquid scintillation counter. The measurement value was given as a 50% inhibition concentration, providing that a group in which no test compounds were added was defined as 100%."}, "[7]": {"conditions": "NS5B produced in Escherichia coli, 30° C., 2 hours, read-out: 50% inhibition concentration"}}, "note": "Read-outs that look alike come from different tables or passages of the source."}
{"smiles": "NC(=O)c1nc(F)cn([C@@H]2O[C@H](COP(=O)(O)OP(=O)(O)OP(=O)(O)O)[C@@H](O)[C@H]2O)c1=O", "note": "[Reference Example 16, [[2R,3S,4R,5R]-5-[3-(aminocarbonyl)-5-fluoro-2-oxo-1(2H)-pyrazinyl]-3,4-dihydroxytetrahydro-2-furanyl]methyl triphosphate]", "values": [{"measurement": "IC50", "setting": "[1]", "value": 140, "unit": "nM"}, {"measurement": "IC50", "setting": "[2]; [7]", "value": 750, "unit": "nM"}]}
{"smiles": "NC(=O)c1nccn([C@@H]2O[C@H](COP(=O)(O)O)[C@@H](O)[C@H]2O)c1=O", "note": "[Reference Example 30, {(2R,3S,4R,5R)-5-[3-(aminocarbonyl)-2-oxo-1(2H)-pyrazinyl]-3,4-dihydroxytetrahydro-2-furanyl}methyl phosphate]", "values": [{"measurement": "IC50", "setting": "[3]", "value": 980000, "unit": "nM"}]}
{"smiles": "NC(=O)c1nc(Cl)cn([C@@H]2O[C@H](CO)[C@@H](O)[C@H]2O)c1=O", "note": "[Reference Example 7, 6-chloro-4-[(2R,3R,4S,5R)-3,4-dihydroxy-5-(hydroxymethyl)tetrahydro-2-furanyl]-3-oxo-3,4-dihydro-2-pyrazinecarboxamide]", "values": [{"measurement": "inhibition at 100 µg/mL", "setting": "[4]", "value": 42, "unit": "%"}]}
{"smiles": "NC(=O)c1nc(F)cn([C@@H]2O[C@H](CO)[C@@H](O)[C@H]2O)c1=O", "note": "[Example 32, 4-[(2R,3R,4S,5R)-3,4-dihydroxy-5-(hydroxymethyl)tetrahydro-2-furanyl]-6-fluoro-3-oxo-3,4-dihydro-2-pyrazinecarboxamide]", "values": [{"measurement": "inhibition at 100 µg/mL", "setting": "[4]", "value": 100, "unit": "%"}, {"measurement": "inhibition at 100 µg/mL", "setting": "[5]", "value": 100, "unit": "%"}]}
{"smiles": "Cc1cn([C@@H]2O[C@H](CO)[C@@H](O)[C@H]2O)c(=O)c(C(N)=O)n1", "note": "[Example 11, 4-[(2R,3R,4S,5R)-3,4-dihydroxy-5-(hydroxymethyl)tetrahydro-2-furanyl]-6-methyl-3-oxo-3,4-dihydro-2-pyrazinecarboxamide]", "values": [{"measurement": "inhibition at 100 µg/mL", "setting": "[4]", "value": 24, "unit": "%"}]}
{"smiles": "CC(C)(C)C(=O)SCCOP(=O)(OCCSC(=O)C(C)(C)C)OC[C@H]1O[C@@H](n2cc(Cl)nc(C(N)=O)c2=O)[C@H](O)[C@@H]1O", "note": "[Example 4, 2,2-dimethyl-thiopropionic acid S-(2-{[(2R,3S,4R,5R)-5-(3-carbamoyl-5-chloro-2-oxo-2H-pyrazine-1-yl)-3,4-dihydroxy-tetrahydro-furan-2-ylmethoxy]-[2-(2,2-dimethyl-propionylsulfanyl)-ethoxy]-phosphoryloxy]-ethyl) ester]", "values": [{"measurement": "inhibition at 100 µg/mL", "setting": "[5]", "value": 68, "unit": "%"}]}
{"smiles": "CC(C)(C)C(=O)OCOP(=O)(OCOC(=O)C(C)(C)C)OC[C@H]1O[C@@H](n2ccnc(C(N)=O)c2=O)[C@H](O)[C@@H]1O", "note": "[Example 6, 2,2-dimethyl-propionic acid[(2R,3S,4R,5R)-5-(3-carbamoyl-2-oxo-2H-pyrazine-1-yl)-3,4-dihydroxy-tetrahydro-furan-2-ylmethoxy]-(2,2-dimethyl-propionyloxymethoxy)-phosphoryloxymethyl ester]", "values": [{"measurement": "inhibition at 100 µg/mL", "setting": "[4]", "value": 100, "unit": "%"}, {"measurement": "inhibition at 100 µg/mL", "setting": "[5]", "value": 57, "unit": "%"}]}
{"smiles": "NC(=O)c1nccn([C@@H]2O[C@H](COP(=O)(O)OP(=O)(O)OP(=O)(O)O)C[C@H]2O)c1=O", "note": "[Reference Example 25, {(2S,4R,5R)-5-[3-(aminocarbonyl)-2-oxo-1(2H)-pyrazinyl]-4-hydroxytetrahydro-2-furanyl} methyl triphosphate]", "values": [{"measurement": "IC50", "setting": "[1]", "value": 28000, "unit": "nM"}, {"measurement": "IC50", "setting": "[6]", "value": "> 200000", "unit": "nM"}, {"measurement": "IC50", "setting": "[2]; [7]", "value": 1600, "unit": "nM"}]}
{"smiles": "CC(=O)O[C@@H]1[C@H](OC(C)=O)[C@@H](CO)O[C@H]1n1cc(F)nc(C(N)=O)c1=O", "note": "[Reference Example 12, (2R,3R,4R,5R)-4-(acetyloxy)-2-[3-(aminocarbonyl)-5-fluoro-2-oxo-1(2H)-pyrazinyl]-5-(hydroxymethyl)tetrahydro-3-furanyl acetate]", "values": [{"measurement": "inhibition at 100 µg/mL", "setting": "[4]", "value": 78, "unit": "%"}]}
{"smiles": "CC(=O)OC[C@H]1O[C@@H](n2cc(F)nc(C(N)=O)c2=O)[C@H](OC(C)=O)[C@@H]1OC(C)=O", "note": "[Example 31, (2R,3R,4R, 5R)-4-(acetyloxy)-2-[(acetyloxy)methyl]-5-[3-(aminocarbonyl)-5-fluoro-2-oxo-1(2H)-pyrazinyl] tetrahydro-3-furanyl acetate]", "values": [{"measurement": "inhibition at 100 µg/mL", "setting": "[4]", "value": 44, "unit": "%"}]}
{"smiles": "NC(=O)c1nccn([C@@H]2O[C@H](COP(=O)(O)OP(=O)(O)OP(=O)(O)O)[C@@H](O)[C@H]2O)c1=O", "note": "[Reference Example 22, {(2R,3S,4R,5R)-5-[3-(aminocarbonyl)-2-oxo-1(2H)-pyrazinyl]-3,4-dihydroxytetrahydro-2-furanyl} methyl triphosphate]", "values": [{"measurement": "IC50", "setting": "[1]", "value": 76, "unit": "nM"}, {"measurement": "IC50", "setting": "[6]", "value": "> 200000", "unit": "nM"}, {"measurement": "IC50", "setting": "[2]; [7]", "value": 88, "unit": "nM"}]}
{"smiles": "CC(=O)OC[C@H]1O[C@@H](n2ccnc(C(N)=O)c2=O)[C@H](OC(C)=O)[C@@H]1OC(C)=O", "note": "[Example 22, (2R,3R,4R,5R)-4-(acetyloxy)-2-[(acetyloxy)methyl]-5-[3-(aminocarbonyl)-2-oxo-1(2H)-pyrazinyl]tetrahydro-3-furanyl acetate]", "values": [{"measurement": "inhibition at 100 µg/mL", "setting": "[4]", "value": 33, "unit": "%"}]}
{"smiles": "NC(=O)c1nc(Cl)cn([C@@H]2O[C@H](COP(=O)(O)OP(=O)(O)OP(=O)(O)O)[C@@H](O)[C@H]2O)c1=O", "note": "[Reference Example 17, {(2R,3S,4R,5R)-5-[3-(aminocarbonyl)-5-chloro-2-oxo-1(2H)-pyrazinyl]-3,4-dihydroxytetrahydro-2-furanyl}methyl triphosphate]", "values": [{"measurement": "IC50", "setting": "[1]", "value": 330, "unit": "nM"}, {"measurement": "IC50", "setting": "[2]; [7]", "value": 2700, "unit": "nM"}]}
{"smiles": "Cc1cn([C@@H]2O[C@H](COP(=O)(O)OP(=O)(O)OP(=O)(O)O)[C@@H](O)[C@H]2O)c(=O)c(C(N)=O)n1", "note": "[Reference Example 23, {(2R,3S,4R,5R)-5-[3-(aminocarbonyl)-5-methyl-2-oxo-1(2H)-pyrazinyl]-3,4-dihydroxytetrahydro-2-furanyl}methyl triphosphate]", "values": [{"measurement": "IC50", "setting": "[1]", "value": 250, "unit": "nM"}, {"measurement": "IC50", "setting": "[2]", "value": 2200, "unit": "nM"}]}
{"smiles": "NC(=O)c1ncn([C@@H]2O[C@H](COP(=O)(O)O)[C@@H](O)[C@H]2O)n1", "note": "[Control compound, Ribavirin monophosphate, reference compound]", "values": [{"measurement": "IC50", "setting": "[3]", "value": 1900, "unit": "nM"}]}
{"smiles": "NC(=O)c1nc(F)cn([C@@H]2O[C@H](COP(=O)(O)O)[C@@H](O)[C@H]2O)c1=O", "note": "[Example 37, [(2R,3S,4R,5R)-5-[3-(aminocarbonyl)-5-fluoro-2-oxo-1(2H)-pyrazinyl]-3,4-dihydroxytetrahydro-2-furanyl]methyl phosphate]", "values": [{"measurement": "IC50", "setting": "[3]", "value": 740000, "unit": "nM"}]}
